# Data taken from US20240415914A1, “Water Dispersible Cannabinoid Compositions” (priority 2021, published 2024).
# Read-outs that look alike come from different tables or passages of the source.
# Columns and labels:
# [1] = Stability of cannabinoid and Vitamin E components of Beverage 2 (AB Red) stored at 8° C. and 21-25° C., LCMSMS over 570 days
# Procedure: The LCMSMS was calibrated for 0-50 ng/ml cannabinoids with the same resin material used in the preparation of the concentrates. At each time period, 100 μml of beverage was diluted with 10 ml of methanol and injected into the LCMSMS for analysis.
# [2] = format: physicochemical; conditions: stored at room temperature (21-25° C.)
# Procedure: At each time period, 0.05 g of powder was dissolved in 10 ml-15 of ethanol, diluted to fall within the analytical range, and injected into the LCMSMS for analysis.
smiles,measurement,setting,value
"CCCc1cc(O)c2c(c1)OC(C)(C)[C@@H]1CCC(C)=C[C@@H]21 [THCV, delta-9-tetrahydrocannabivarin]",Stability of Cannabinoids in AB Red,"[1]; 8° C., 0 days",3.22 µg/mL
same,Stability of Cannabinoids in AB Red,"[1]; 8° C., 1 days",3.19 µg/mL
same,Stability of Cannabinoids in AB Red,"[1]; 8° C., 2 days",3.17 µg/mL
same,Stability of Cannabinoids in AB Red,"[1]; 8° C., 3 days",3.20 µg/mL
same,Stability of Cannabinoids in AB Red,"[1]; 8° C., 5 days",3.24 µg/mL
same,Stability of Cannabinoids in AB Red,"[1]; 8° C., 8 days",3.17 µg/mL
same,Stability of Cannabinoids in AB Red,"[1]; 8° C., 9 days",3.14 µg/mL
same,Stability of Cannabinoids in AB Red,"[1]; 8° C., 10 days",3.14 µg/mL
same,Stability of Cannabinoids in AB Red,"[1]; 8° C., 11 days",3.24 µg/mL
same,Stability of Cannabinoids in AB Red,"[1]; 8° C., 12 days",3.25 µg/mL
same,Stability of Cannabinoids in AB Red,"[1]; 8° C., 15 days",3.19 µg/mL
same,Stability of Cannabinoids in AB Red,"[1]; 8° C., 16 days",3.25 µg/mL
same,Stability of Cannabinoids in AB Red,"[1]; 8° C., 17 days",3.12 µg/mL
same,Stability of Cannabinoids in AB Red,"[1]; 8° C., 18 days",3.17 µg/mL
same,Stability of Cannabinoids in AB Red,"[1]; 8° C., 19 days",3.19 µg/mL
same,Stability of Cannabinoids in AB Red,"[1]; 8° C., 22 days",3.22 µg/mL
same,Stability of Cannabinoids in AB Red,"[1]; 8° C., 23 days",3.25 µg/mL
same,Stability of Cannabinoids in AB Red,"[1]; 8° C., 24 days",3.15 µg/mL
same,Stability of Cannabinoids in AB Red,"[1]; 8° C., 25 days",3.25 µg/mL
same,Stability of Cannabinoids in AB Red,"[1]; 8° C., 26 days",3.13 µg/mL
same,Stability of Cannabinoids in AB Red,"[1]; 8° C., 29 days",3.22 µg/mL
same,Stability of Cannabinoids in AB Red,"[1]; 8° C., 30 days",3.20 µg/mL
same,Stability of Cannabinoids in AB Red,"[1]; 8° C., 60 days",3.11 µg/mL
same,Stability of Cannabinoids in AB Red,"[1]; 8° C., 90 days",3.10 µg/mL
same,Stability of Cannabinoids in AB Red,"[1]; 8° C., 120 days",3.10 µg/mL
same,Stability of Cannabinoids in AB Red,"[1]; 8° C., 150 days",3.15 µg/mL
same,Stability of Cannabinoids in AB Red,"[1]; 8° C., 180 days",3.10 µg/mL
same,Stability of Cannabinoids in AB Red,"[1]; 8° C., 210 days",3.15 µg/mL
same,Stability of Cannabinoids in AB Red,"[1]; 8° C., 240 days",3.08 µg/mL
same,Stability of Cannabinoids in AB Red,"[1]; 8° C., 270 days",3.15 µg/mL
same,Stability of Cannabinoids in AB Red,"[1]; 8° C., 300 days",3.15 µg/mL
same,Stability of Cannabinoids in AB Red,"[1]; 8° C., 330 days",3.15 µg/mL
same,Stability of Cannabinoids in AB Red,"[1]; 8° C., 390 days",3.08 µg/mL
same,Stability of Cannabinoids in AB Red,"[1]; 8° C., 420 days",3.13 µg/mL
same,Stability of Cannabinoids in AB Red,"[1]; 8° C., 450 days",3.08 µg/mL
same,Stability of Cannabinoids in AB Red,"[1]; 8° C., 480 days",3.05 µg/mL
same,Stability of Cannabinoids in AB Red,"[1]; 8° C., 510 days",2.95 µg/mL
same,Stability of Cannabinoids in AB Red,"[1]; 8° C., 540 days",2.99 µg/mL
same,Stability of Cannabinoids in AB Red,"[1]; 8° C., 570 days",2.95 µg/mL
same,Stability of Cannabinoids in AB Red,"[1]; 21-25° C., 0 days",3.22 µg/mL
same,Stability of Cannabinoids in AB Red,"[1]; 21-25° C., 1 days",3.13 µg/mL
same,Stability of Cannabinoids in AB Red,"[1]; 21-25° C., 2 days",3.20 µg/mL
same,Stability of Cannabinoids in AB Red,"[1]; 21-25° C., 3 days",3.25 µg/mL
same,Stability of Cannabinoids in AB Red,"[1]; 21-25° C., 5 days",3.25 µg/mL
same,Stability of Cannabinoids in AB Red,"[1]; 21-25° C., 8 days",3.19 µg/mL
same,Stability of Cannabinoids in AB Red,"[1]; 21-25° C., 9 days",3.17 µg/mL
same,Stability of Cannabinoids in AB Red,"[1]; 21-25° C., 10 days",3.09 µg/mL
same,Stability of Cannabinoids in AB Red,"[1]; 21-25° C., 11 days",3.24 µg/mL
same,Stability of Cannabinoids in AB Red,"[1]; 21-25° C., 12 days",3.24 µg/mL
same,Stability of Cannabinoids in AB Red,"[1]; 21-25° C., 15 days",3.20 µg/mL
same,Stability of Cannabinoids in AB Red,"[1]; 21-25° C., 16 days",3.20 µg/mL
same,Stability of Cannabinoids in AB Red,"[1]; 21-25° C., 17 days",3.11 µg/mL
same,Stability of Cannabinoids in AB Red,"[1]; 21-25° C., 18 days",3.19 µg/mL
same,Stability of Cannabinoids in AB Red,"[1]; 21-25° C., 19 days",3.19 µg/mL
same,Stability of Cannabinoids in AB Red,"[1]; 21-25° C., 22 days",3.18 µg/mL
same,Stability of Cannabinoids in AB Red,"[1]; 21-25° C., 23 days",3.23 µg/mL
same,Stability of Cannabinoids in AB Red,"[1]; 21-25° C., 24 days",3.25 µg/mL
same,Stability of Cannabinoids in AB Red,"[1]; 21-25° C., 25 days",3.24 µg/mL
same,Stability of Cannabinoids in AB Red,"[1]; 21-25° C., 26 days",3.11 µg/mL
same,Stability of Cannabinoids in AB Red,"[1]; 21-25° C., 29 days",3.15 µg/mL
same,Stability of Cannabinoids in AB Red,"[1]; 21-25° C., 30 days",3.15 µg/mL
same,Stability of Cannabinoids in AB Red,"[1]; 21-25° C., 60 days",3.18 µg/mL
same,Stability of Cannabinoids in AB Red,"[1]; 21-25° C., 90 days",3.05 µg/mL
same,Stability of Cannabinoids in AB Red,"[1]; 21-25° C., 120 days",3.09 µg/mL
same,Stability of Cannabinoids in AB Red,"[1]; 21-25° C., 150 days",3.17 µg/mL
same,Stability of Cannabinoids in AB Red,"[1]; 21-25° C., 180 days",3.10 µg/mL
same,Stability of Cannabinoids in AB Red,"[1]; 21-25° C., 210 days",3.03 µg/mL
same,Stability of Cannabinoids in AB Red,"[1]; 21-25° C., 240 days",3.18 µg/mL
same,Stability of Cannabinoids in AB Red,"[1]; 21-25° C., 270 days",3.04 µg/mL
same,Stability of Cannabinoids in AB Red,"[1]; 21-25° C., 300 days",3.14 µg/mL
same,Stability of Cannabinoids in AB Red,"[1]; 21-25° C., 330 days",3.19 µg/mL
same,Stability of Cannabinoids in AB Red,"[1]; 21-25° C., 390 days",3.04 µg/mL
same,Stability of Cannabinoids in AB Red,"[1]; 21-25° C., 420 days",3.10 µg/mL
same,Stability of Cannabinoids in AB Red,"[1]; 21-25° C., 450 days",3.14 µg/mL
same,Stability of Cannabinoids in AB Red,"[1]; 21-25° C., 480 days",3.04 µg/mL
same,Stability of Cannabinoids in AB Red,"[1]; 21-25° C., 510 days",3.01 µg/mL
same,Stability of Cannabinoids in AB Red,"[1]; 21-25° C., 540 days",2.95 µg/mL
same,Stability of Cannabinoids in AB Red,"[1]; 21-25° C., 570 days",2.98 µg/mL
same,Stability in Powder Concentrate (content by LCMSMS),[2]; day 0,0.680 mg/g powder
same,Stability in Powder Concentrate (content by LCMSMS),[2]; day 1,0.685 mg/g powder
same,Stability in Powder Concentrate (content by LCMSMS),[2]; day 2,0.699 mg/g powder
same,Stability in Powder Concentrate (content by LCMSMS),[2]; day 3,0.698 mg/g powder
same,Stability in Powder Concentrate (content by LCMSMS),[2]; day 5,0.676 mg/g powder
same,Stability in Powder Concentrate (content by LCMSMS),[2]; day 8,0.685 mg/g powder
same,Stability in Powder Concentrate (content by LCMSMS),[2]; day 9,0.693 mg/g powder
same,Stability in Powder Concentrate (content by LCMSMS),[2]; day 10,0.706 mg/g powder
same,Stability in Powder Concentrate (content by LCMSMS),[2]; day 11,0.708 mg/g powder
same,Stability in Powder Concentrate (content by LCMSMS),[2]; day 12,0.698 mg/g powder
same,Stability in Powder Concentrate (content by LCMSMS),[2]; day 15,0.684 mg/g powder
same,Stability in Powder Concentrate (content by LCMSMS),[2]; day 16,0.658 mg/g powder
same,Stability in Powder Concentrate (content by LCMSMS),[2]; day 17,0.681 mg/g powder
same,Stability in Powder Concentrate (content by LCMSMS),[2]; day 18,0.690 mg/g powder
same,Stability in Powder Concentrate (content by LCMSMS),[2]; day 19,0.705 mg/g powder
same,Stability in Powder Concentrate (content by LCMSMS),[2]; day 22,0.703 mg/g powder
same,Stability in Powder Concentrate (content by LCMSMS),[2]; day 23,0.687 mg/g powder
same,Stability in Powder Concentrate (content by LCMSMS),[2]; day 24,0.668 mg/g powder
same,Stability in Powder Concentrate (content by LCMSMS),[2]; day 25,0.689 mg/g powder
same,Stability in Powder Concentrate (content by LCMSMS),[2]; day 26,0.686 mg/g powder
same,Stability in Powder Concentrate (content by LCMSMS),[2]; day 29,0.706 mg/g powder
same,Stability in Powder Concentrate (content by LCMSMS),[2]; day 30,0.659 mg/g powder
same,Stability in Powder Concentrate (content by LCMSMS),[2]; day 60,0.702 mg/g powder
same,Stability in Powder Concentrate (content by LCMSMS),[2]; day 90,0.707 mg/g powder
same,Stability in Powder Concentrate (content by LCMSMS),[2]; day 120,0.658 mg/g powder
same,Stability in Powder Concentrate (content by LCMSMS),[2]; day 150,0.695 mg/g powder
same,Stability in Powder Concentrate (content by LCMSMS),[2]; day 180,0.685 mg/g powder
same,Stability in Powder Concentrate (content by LCMSMS),[2]; day 210,0.662 mg/g powder
same,Stability in Powder Concentrate (content by LCMSMS),[2]; day 240,0.700 mg/g powder
same,Stability in Powder Concentrate (content by LCMSMS),[2]; day 270,0.670 mg/g powder
same,Stability in Powder Concentrate (content by LCMSMS),[2]; day 300,0.685 mg/g powder
same,Stability in Powder Concentrate (content by LCMSMS),[2]; day 330,0.691 mg/g powder
same,Stability in Powder Concentrate (content by LCMSMS),[2]; day 360,0.668 mg/g powder
same,Stability in Powder Concentrate (content by LCMSMS),[2]; day 390,0.680 mg/g powder
same,Stability in Powder Concentrate (content by LCMSMS),[2]; day 420,0.671 mg/g powder
same,Stability in Powder Concentrate (content by LCMSMS),[2]; day 450,0.680 mg/g powder
same,Stability in Powder Concentrate (content by LCMSMS),[2]; day 480,0.695 mg/g powder
same,Stability in Powder Concentrate (content by LCMSMS),[2]; day 510,0.696 mg/g powder
same,Stability in Powder Concentrate (content by LCMSMS),[2]; day 540,0.664 mg/g powder
same,Stability in Powder Concentrate (content by LCMSMS),[2]; day 570,0.686 mg/g powder
